Laboratory results published in US20040142979A1, “Heteroarylsulfonylmethyl hydroxamic acids and amides and their use as protease inhibitors” (priority 2002, published 2004).

Tests used:
Human recombinant MMP-9 = molecular target: T1, Human recombinant MMP-9 (Homo sapiens, UniProt P14780); test: In vitro MMP inhibition analysis (fluorogenic peptide substrate), MMP-9; format: biochemical; details: human recombinant enzyme; 4 μM substrate (A); apparent Ki without substrate correction
T1 construct: made in house; host or cells: MMP-9-transfected HT1080 cells (spent media)
T1 sequence (P14780 107-707 limits assumed): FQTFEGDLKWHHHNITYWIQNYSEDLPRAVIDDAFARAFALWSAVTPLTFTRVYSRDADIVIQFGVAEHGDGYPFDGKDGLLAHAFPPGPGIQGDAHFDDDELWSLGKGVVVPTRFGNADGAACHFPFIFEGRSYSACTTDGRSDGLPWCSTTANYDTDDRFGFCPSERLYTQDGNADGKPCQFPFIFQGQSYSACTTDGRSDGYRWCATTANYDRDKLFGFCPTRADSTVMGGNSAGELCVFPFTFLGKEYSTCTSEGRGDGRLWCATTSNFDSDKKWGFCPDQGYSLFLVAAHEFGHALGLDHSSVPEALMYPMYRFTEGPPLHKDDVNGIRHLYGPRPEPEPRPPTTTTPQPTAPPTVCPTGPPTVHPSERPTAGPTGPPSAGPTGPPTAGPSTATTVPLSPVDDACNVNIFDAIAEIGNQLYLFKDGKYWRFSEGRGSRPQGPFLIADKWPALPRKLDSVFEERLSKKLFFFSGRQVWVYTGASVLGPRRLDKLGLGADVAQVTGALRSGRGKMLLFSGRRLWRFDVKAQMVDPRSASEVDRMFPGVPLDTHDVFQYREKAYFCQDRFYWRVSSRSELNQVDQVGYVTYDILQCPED
Description: (§1) Several compounds and salts were analyzed in an in vitro assay to determine their ability to inhibit the MMP cleavage of peptide substrates. Inhibition constant (Ki) were calculated from the assayed compound-MMP interactions.
(§2) Human recombinant MMP-1, MMP-2, MMP-9, MMP-13, and MMP-14 were used in this assay. All enzymes were prepared in Assignee's laboratories following usual laboratory procedures. Protocols for the preparation and use of these enzymes are available in the scientific literature. See, e.g., Enzyme Nomenclature (Academic Press, San Diego, Calif., 1992) (and the citations therein). See also, Freije et al., J. Biol. Chem., 269(24), 16766-16773 (1994).
The MMP-9 proenzyme was purified by gelatin Sepharose chromatography from spent media of MMP-9-transfected HT1080 cells provided by Dr. Howard Welgus of Washington University (St. Louis, Mo.).
(§3) All MMPs were activated using 4-aminophenylmercuric acetate (“APMA”, Sigma Chemical, St. Louis, Mo.) or trypsin. MMP-9 also was activated using human recombinant MMP-3 (purified in Assignee's laboratory following standard cloning and purification techniques).
(§4) The following fluorogenic, methoxycoumarin-containing polypeptide substrate (A) was used in the MMP inhibition assays:
(§5) MCA-ArgProLeuGlyLeuDpaAlaArgGluArgNH2 (A)
(§6) “MCA” is 7-methoxycoumarin-4-yl acetyl. Substrate (A) was prepared Assignee's laboratory. In the absence of MMP inhibitory activity, the substrate is cleaved at the Gly-Leu peptide bond. This cleavage separates the highly fluorogenic peptide from the 2,4-dinitrophenyl quencher, thus resulting in increase of fluorescent intensity.
(§7) The stock solutions of the assayed compounds and salts were prepared in 1% dimethyl sulfoxide (DMSO). These stock solutions were diluted in Buffer A (100 mM Tris-HCl, 100 mM NaCl, 10 mM CaCl2, 0.05% polyoxyethylene 23 lauryl ether, pH 7.5) to obtain solutions with different compound concentrations, i.e., assay solutions with different concentrations of the assayed MMP inhibitory compound. The experiment controls contained the same amount of Buffer A/DMSO as the assayed sample, but contained none of the tested compound or salt.
(§8) The assays from which the Ki determinations were made were performed as follows. The assayed compound samples were incubated in separate wells of untreated white polystyrene plates (Nunc Nalgene International, Rochester, N.Y.), and analyzed on a Tecan SpectraFlour Plus plate reader. The excitation wavelength was 330 nm, and the emission wavelength -420 nm. All samples (assayed compounds and controls) were incubated in separate plate wells at room temperature for 1 hr in the presence of 4 μM of MMP substrate (A). In the absence of MMP inhibitory activity, substrate (A) was cleaved at the Gly-Leu bond resulting in an increase of relative fluorescence. Inhibition was observed as a reduced rate of this increase in relative fluorescence. […] This protocol is a modification of method by Knight et al., FEBS Lett., 296(3), 263-266 (1992). Apparent inhibitory constants were determined by non-linear regression of reaction velocity as a function of inhibitor and enzyme concentration using Morrison's equation, as described by Kuzmic, P., et al., Anal. Biochem., 286(1):45-50 (2000). Modifications were made in the non-linear regression method to allow a common control reaction rate and effective enzyme concentration to be shared between all dose-response relationships on a given assay plate. Since the substrate concentration was chosen to be at or below the Km, the apparent Ki's from this analysis were reported as Ki's without correction for the influence of substrate.
The above protocols were used to determine MMP inhibition Ki constants for the compounds in Examples 1, 2, and 4-42 above. All Ki values in Table 3 are given in nM units.

Human recombinant MMP-13 = molecular target: T2, Human recombinant MMP-13 (Homo sapiens, UniProt P45452); test: In vitro MMP inhibition analysis (fluorogenic peptide substrate), MMP-13; format: biochemical; details: human recombinant enzyme; 4 μM substrate (A); apparent Ki without substrate correction
T2 construct: made in house; host or cells: baculovirus / insect cells
Description: as §1, §2
The MMP-13 was obtained as a proenzyme from a full-length cDNA clone using baculovirus, as described by V. A. Luckow, “Insect Cell Expression Technology,” Protein Engineering: Principles and Practice, pp. 183-218 (edited by J. L. Cleland et al., Wiley-Liss, Inc., 1996). The expressed proenzyme was first purified over a heparin agarose column, and then over a chelating zinc chloride column. The proenzyme was then activated by APMA for use in the assay. […] See also, O'Reilly et al, Baculovirus Expression Vectors: A Laboratory Manual (W. H. Freeman and Co., New York, N.Y., 1992). See also, King et al., The Baculovirus Expression System: A Laboratory Guide (Chapman & Hall, London, England, 1992).
as §3, §4, §5, §6, §7
as §8, with “Modifications were made in the non-linear regression method to allow a common control reaction rate and effective enzyme concentration to be shared between all dose-response relationships on a given assay plate.” left out
All Ki values in Table 3 are given in nM units.

Structure (SMILES): O=C(NO)C1(S(=O)(=O)c2ccc(-c3ccc(OC(F)(F)F)cc3)nc2)CCOCC1 [Example 84]
- Ki (Human recombinant MMP-9): 4.26 nM
- Ki (Human recombinant MMP-13): 0.79 nM
